Data from the NIST ThermoML archive (doi:10.1007/s10765-009-0579-1).

Assay: xn = mol fraction of the nth substance listed
Settings: Gas; for viscosity: Oscillating disk viscometry; for mass density: Pycnometric method

CC(F)(F)Cl [1-chloro-1,1-difluoroethane] + FC(F)Cl
Settings | mass density [kg/m3] | viscosity [mPa·s]
373.15 K, 2604 kPa, x2 = 0.7502 | 99.88 | 0.01618
373.15 K, 2789 kPa, x2 = 0.7502 | 110.3 | 0.01638
373.15 K, 2988 kPa, x2 = 0.7502 | 121.8 | 0.01665
398.15 K, 100.6 kPa, x2 = 0.7502 | 2.753 | 0.01605
398.15 K, 101.6 kPa, x2 = 0.2615 | 2.997 | 0.01472
398.15 K, 101.8 kPa, x2 = 0.5169 | 2.886 | 0.01547
398.15 K, 102 kPa, x2 = 0.2615 | 3.006 | 0.0147
398.15 K, 278.9 kPa, x2 = 0.2615 | 8.354 | 0.01475
398.15 K, 345.7 kPa, x2 = 0.5169 | 9.975 | 0.01548
398.15 K, 404.8 kPa, x2 = 0.7502 | 11.29 | 0.01605
398.15 K, 468 kPa, x2 = 0.2615 | 14.28 | 0.01477
398.15 K, 591.5 kPa, x2 = 0.5169 | 17.39 | 0.01553
398.15 K, 654.1 kPa, x2 = 0.2615 | 20.27 | 0.01482
398.15 K, 779.9 kPa, x2 = 0.7502 | 22.29 | 0.01612
398.15 K, 834.7 kPa, x2 = 0.5169 | 25.01 | 0.01557
398.15 K, 908.9 kPa, x2 = 0.2615 | 28.88 | 0.01485
398.15 K, 1036 kPa, x2 = 0.7502 | 30.15 | 0.01619
398.15 K, 1081 kPa, x2 = 0.5169 | 33.05 | 0.01562
398.15 K, 1153 kPa, x2 = 0.2615 | 37.53 | 0.01493
398.15 K, 1326 kPa, x2 = 0.5169 | 41.4 | 0.01572
398.15 K, 1374 kPa, x2 = 0.7502 | 40.98 | 0.01628
398.15 K, 1397 kPa, x2 = 0.2615 | 46.73 | 0.01504
398.15 K, 1569 kPa, x2 = 0.5169 | 50.2 | 0.01584
398.15 K, 1608 kPa, x2 = 0.2615 | 55.16 | 0.0151
398.15 K, 1667 kPa, x2 = 0.7502 | 50.88 | 0.01642
398.15 K, 1821 kPa, x2 = 0.2615 | 63.97 | 0.01525
398.15 K, 1824 kPa, x2 = 0.5169 | 59.84 | 0.01596
398.15 K, 2016 kPa, x2 = 0.7502 | 63.22 | 0.01657
398.15 K, 2031 kPa, x2 = 0.2615 | 73.54 | 0.01542
398.15 K, 2121 kPa, x2 = 0.5169 | 71.87 | 0.01616
398.15 K, 2251 kPa, x2 = 0.2615 | 84.17 | 0.0156
398.15 K, 2376 kPa, x2 = 0.5169 | 82.87 | 0.01632
398.15 K, 2376 kPa, x2 = 0.7502 | 77.16 | 0.01679
398.15 K, 2442 kPa, x2 = 0.2615 | 94.09 | 0.01576
398.15 K, 2634 kPa, x2 = 0.5169 | 94.96 | 0.01655
398.15 K, 2637 kPa, x2 = 0.2615 | 105.1 | 0.01598
398.15 K, 2813 kPa, x2 = 0.7502 | 95.48 | 0.01711
398.15 K, 2835 kPa, x2 = 0.2615 | 117.2 | 0.01629
398.15 K, 2884 kPa, x2 = 0.5169 | 107.4 | 0.0168
398.15 K, 3101 kPa, x2 = 0.2615 | 136 | 0.01673
398.15 K, 3115 kPa, x2 = 0.7502 | 109.3 | 0.01741
398.15 K, 3195 kPa, x2 = 0.5169 | 124.9 | 0.01716
398.15 K, 3322 kPa, x2 = 0.2615 | 154.3 | 0.01724
398.15 K, 3403 kPa, x2 = 0.7502 | 128.5 | 0.01784
398.15 K, 3432 kPa, x2 = 0.5169 | 139.6 | 0.01752
398.15 K, 3481 kPa, x2 = 0.2615 | 170.2 | 0.01773
398.15 K, 3698 kPa, x2 = 0.2615 | 196.3 | 0.01858
398.15 K, 3714 kPa, x2 = 0.5169 | 159.3 | 0.01808
398.15 K, 3825 kPa, x2 = 0.7502 | 146.7 | 0.01827
398.15 K, 3854 kPa, x2 = 0.2615 | 222.4 | 0.01953
398.15 K, 3961 kPa, x2 = 0.5169 | 179.5 | 0.01865
398.15 K, 3998 kPa, x2 = 0.2615 | 261.2 | 0.02101
398.15 K, 4086 kPa, x2 = 0.7502 | 162.7 | 0.01865
398.15 K, 4222 kPa, x2 = 0.5169 | 204.9 | 0.01952
398.15 K, 4343 kPa, x2 = 0.7502 | 180.2 | 0.01918
398.15 K, 4446 kPa, x2 = 0.5169 | 231.6 | 0.02048
398.15 K, 4642 kPa, x2 = 0.7502 | 203.6 | 0.01991
398.15 K, 4840 kPa, x2 = 0.7502 | 218.9 | 0.0205
423.15 K, 101.1 kPa, x2 = 0.7502 | 2.597 | 0.01682
